Residues, ends and D or L forms follow the SMILES beside them. *: point of attachment. Cbz = O=C(OCc1ccccc1)* Some results are limits rather than exact numbers.

The values that follow come from EP4459280A1, “SCREENING AND USES OF GLUTATHIONE SYNTHETASE MODULATORS” (Max-Planck-Gesellschaft zur Förderung der Wissenschaften …, priority 2023, dated 2024).

For assay [1], the system named is SREBP2. The experiment in a line: Immunoblotting for SREBP2 cleavage in HepG2 cells. Format: cell-based, human. The conditions noted are these: Hep G2 starved of glutamine 24h, brefeldin A 0.5 µg/ml. The protocol: (§1) Primary antibodies were incubated in PBS-T overnight.
(A western blot detects proteins with antibodies after separation by electrophoresis.)

The test system of assay [2] is HMGCR. Nature of the assay: Immunoblotting for HMGCR in HepG2 cells. Format: cell-based, human. An excerpt:
(§2) HeLa adenocarcinoma cells, HepG2 hepatocellular carcinoma, and Wild-type (WT) MEFs as well as Mfn1^-/^-, and Mfn2^-/- mouse embryonic fibroblasts (MEFs) were obtained from ATCC (CCL-2, HB-8065, CRL-2991, CRL-2992, and CRL-2993, respectively). eGFP-SCAP-expressing CHO Chinese hamster ovary cells were provided by Drs. J Goldstein and M Brown (U of Texas Southwestern Medical Center); WT and MFN2 KO U2OS cells were provided by Dr. Edward A Fon (McGill University, Montreal, Canada). All cell lines were cultured in complete DMEM (cDMEM: DMEM + 10% heat-inactivated FBS + 1%P/S) at 5% CO2 except for CHO cells which were cultured in DMEM/F12 media containing 5% heat-inactivated FBS. For all the experiments, cells were plated and cultivated without FBS (DMEM and 10% H20 for cell culture + 1%P/S) to promote cholesterol synthesis. Cells were tested frequently for Mycoplasma infection by PCR.
For all experiments, unless otherwise indicated, cells were plated in complete DMEM. The next day cell monolayers were rinsed 2X with 1X PBS and cultured in DMEM overnight, followed by treatments as indicated in text. Whole cells were harvested in chilled lysis buffer (50mM Hepes-KOH pH 7.4, 40mM NaCl, 2mM EDTA, 1.5mM NaVO4, 50mM NaF, 10mM NaPyrophosphate, 10mM, NaBetaGlycerophosphate (disodium salt pentahydrate), 1% Triton X-100) containing 0.25U/uL. Lysates were subsequently shaken at 1500 rpm at 37°C for 15min, centrifuged for 5 min at 1200 rpm at 4°C, and the supernatant was transferred into a fresh tube. Protein concentration was quantified using Pierce™ BCA Protein Assay Kit and after diluted with 5X SDS added to a final of 1X SDS. 10 ug of protein was applied in an SDS-PAGE gel and transferred to PVDF membranes. Membranes were blocked with PBS-0.05% Tween 20 (PBS-T) and 5% non-fat milk for 30min. Primary antibodies were incubated in PBS-T overnight. Following incubation, blots were washed three times in PBS-T and then incubated with horseradish peroxidase (HRP)-conjugated anti-mouse IgG (CST #7076) or anti-rabbit IgG (CST #7074) at a 1:10000 dilution for 60 minutes ar RT and developed using a chemiluminescence system (Pierce™ ECL Western Blotting Substrate or Pierce SuperSignal™ West Atto Ultimate Sensitivity Substrate; ThermoFisher Scientific). […]

Assay [3] concerns HMGCR. The experiment in a line: Immunoblotting for HMGCR in U2OS cells. The conditions noted are these: for rescue of HMGCR in glutamine-starved cells: U2OS w/o glutamine 24h, then treated 24h: 1mM sodium pyruvate, DON at indicated concentrations, 2 mM D-gln; for loss of HMGCR during glutamine withdrawal: U2OS gln-, αKG 1 mM (24h), ISRIB 200nM (8h). Format: cell-based, human. How it is done:
Cells were tested frequently for Mycoplasma infection by PCR.
as §1

The subject of a further assay is ATF4. Nature of the assay: Immunoblotting for ATF4 (integrated stress response) in U2OS cells. It is filed as cell-based, human. Conditions: U2OS ± gln, ISRIB 200nM, 8h. How it is done: as §1
Another assay addresses GLUL (Homo sapiens, UniProt P15104). The conditions noted are these: HepG2, 500 µM MSX for 8h; immunoblot.
Description: as §2
For all experiments, unless otherwise indicated, cells were plated in complete DMEM. The next day cell monolayers were rinsed 2X with 1X PBS and cultured in DMEM overnight, followed by treatments as indicated in text. […] Protein concentration was quantified using Pierce™ BCA Protein Assay Kit and after diluted with 5X SDS added to a final of 1X SDS. […]

Assay [4] has as its system U2OS cells. The conditions noted are these: U2OS cultured 24h w/o gln, supplemented 24h with 10 mM 15NH4Cl.
Description: 2 × 10^5 cells were plated in complete DMEM in 6 wells plates. The following day, cells were rinsed 2X with 1X PBS and cultured in DMEM. Treatments were started the following day as indicated in the text in 6 wells plates containing. For glucose-related isotope-labeling experiments, D-Glucose-^13C6 (Sigma #389374-1G) was administed at 25mM in 1 ml of glutamine-free DMEM. […] After the indicated treatments cells were washed twice with 75mM of ammonium carbonate pH =7.4 and the plates were frozen in liquid nitrogen and stored at -80°C until metabolite extraction. For metabolite extraction, 60% MeOH containing internal standards buffer was added to each well of the frozen plate. […]
The LC-HRMS analysis of amine-containing compounds was performed using a QE-Plus high-resolution mass spectrometer coupled to a Vanquish UHPLC chromatography system (Thermo Fisher Scientific). […] The identity of each compound was validated by authentic reference compounds, which were measured at the beginning and the end of the sequence. For data analysis the area of the protonated [M + nBz + H]+ (nBz stands for the number of benzoyl moieties attached to each compound) isotopologue mass peaks of every required compound were extracted and integrated using a mass accuracy <3 ppm and a retention time (RT) tolerance of <0.05 min as compared to the independently measured reference compounds. […]
Another assay relates to HepG2 cells. The conditions noted are these: HepG2 cultured 24h w/o gln, supplemented 24h with 10 mM 15NH4Cl.
Another assay has as its system eGFP-SCAP. The experiment in a line: Immunofluorescence assay of eGFP-SCAP localization relative to the Golgi in CHO cells. The conditions noted are these: CHO w/o gln 24h. It is filed as cell-based, Chinese hamster. How it is done: For immunofluorescence (IF) analysis of eGFP-SCAP-expressing CHOs, .25 × 10^4 cells were plated in a 24-well glass-bottom sensoplate, starved of glutamine for 24h, and incubated with methionine sulfoximine at 0.5 mM with either no glutamine, 2 mM glutamine, or 1mM a-ketoglutarate. […] Following 3X rinses in 1X PBS, images were taken using an Olympus IXplore SpinSR spinning disk confocal microscope.

Assay [5] concerns SREBP2. Nature of the assay: Immunoblotting for precursor and mature SREBP2 in U2OS cells. Format: cell-based, human. Conditions: U2OS starved of glutamine 8h ± αKG 1 mM.
Description: (§4) For all experiments, unless otherwise indicated, cells were plated in complete DMEM. The next day cell monolayers were rinsed 2X with 1X PBS and cultured in DMEM overnight, followed by treatments as indicated in text. […] Lysates were subsequently shaken at 1500 rpm at 37°C for 15min, centrifuged for 5 min at 1200 rpm at 4°C, and the supernatant was transferred into a fresh tube. Protein concentration was quantified using Pierce™ BCA Protein Assay Kit and after diluted with 5X SDS added to a final of 1X SDS. 10 ug of protein was applied in an SDS-PAGE gel and transferred to PVDF membranes. Membranes were blocked with PBS-0.05% Tween 20 (PBS-T) and 5% non-fat milk for 30min. Primary antibodies were incubated in PBS-T overnight.
The test system of assay [6] is U2OS cells. Nature of the assay: 13C6-glucose isotope labeling and metabolomics (AEX-MS) of TCA metabolites in U2OS cells. The conditions noted are these: U2OS 24h, gln-, 1 mM αKG. Format: cell-based, human. How it is done: (§3) 2 × 10^5 cells were plated in complete DMEM in 6 wells plates. The following day, cells were rinsed 2X with 1X PBS and cultured in DMEM. Treatments were started the following day as indicated in the text in 6 wells plates containing. For glucose-related isotope-labeling experiments, D-Glucose-^13C6 (Sigma #389374-1G) was administed at 25mM in 1 ml of glutamine-free DMEM. For ammonia-related isotope-labeling experiments, ammonium label experiments Ammonium-^15N chloride (Sigma #299251-250MG) at 10mM. After the indicated treatments cells were washed twice with 75mM of ammonium carbonate pH =7.4 and the plates were frozen in liquid nitrogen and stored at -80°C until metabolite extraction. For metabolite extraction, 60% MeOH containing internal standards buffer was added to each well of the frozen plate. The cells were then scraped, transferred to a new tube containing MTBE and EquiSPLASH™ LIPIDOMIX® (Avanti 330731-1EA), and incubated for 30 min at 1500 rpm at 4°C. The samples were centrifuged for 10 min at 21.000xg at 4°C. The supernatants were then collected in a new tube with LCMS-grade H2O, incubated for 10 min at 1500 rpm at 15°C, and further centrifuged for 5 min at 16.000xg at 15°C to obtain a clear phase separation. The upper phase (apolar metabolites) and the down phase (polar metabolites) were collected in different tubes. After, the metabolite extracts were dried down in speed vac and stored at -80°C until further analysis by LC-HRS-MS as described further.

For a further assay, the system named is p70 phospho-S6K (pS6K). The experiment in a line: Immunoblotting for phospho-S6K (mTORC1 activity) in U2OS cells. It is filed as cell-based, human. Conditions: U2OS gln-, αKG 1 mM.
For assay [7], the system named is U2OS cells. The experiment in a line: UPLC-HRMS-based measurement of 13C-cholesterol in U2OS cells. It is filed as cell-based, human. The conditions noted are these: U2OS 24h, 25 mM 13C6-glucose, gln-, 1 mM αKG. The protocol: as §3, with “After, the metabolite extracts were dried down in speed vac and stored at -80°C until further analysis by LC-HRS-MS as described further.” left out

A further assay concerns FDFT1. The experiment in a line: Immunoblotting for FDFT1 in U2OS cells. Format: cell-based, human. Conditions: U2OS starved of glutamine 8 hours, αKG 1 mM.
Another assay concerns ATF6. Nature of the assay: Immunoblotting for ATF6 cleavage in U2OS cells. The conditions noted are these: U2OS w/o glutamine 24h, then 8 hours ± 2 mM gln, 15 µg/ml tunicamycin. Format: cell-based, human. The protocol:
as §1

Chain of GLUL (P15104 whole entry): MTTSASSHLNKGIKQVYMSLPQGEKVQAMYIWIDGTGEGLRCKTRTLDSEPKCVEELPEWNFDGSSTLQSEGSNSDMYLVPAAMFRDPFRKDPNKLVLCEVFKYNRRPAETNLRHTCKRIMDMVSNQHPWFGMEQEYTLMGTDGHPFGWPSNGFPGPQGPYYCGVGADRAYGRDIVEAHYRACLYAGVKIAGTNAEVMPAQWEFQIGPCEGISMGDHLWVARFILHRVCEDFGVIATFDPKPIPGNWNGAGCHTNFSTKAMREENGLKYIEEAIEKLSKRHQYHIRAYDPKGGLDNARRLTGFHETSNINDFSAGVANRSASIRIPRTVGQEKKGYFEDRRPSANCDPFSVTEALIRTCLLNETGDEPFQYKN
Description for FDFT1: as §4
Description for p70 phospho-S6K (pS6K): as §4

Take `C[C@H]1CCC/C=C/[C@@H]2C[C@H](O)C[C@H]2[C@H](O)/C=C/C(=O)O1` [BFA, brefeldin A]: in the assay on SREBP2 [1], the SREBP2 cleavage result was “rescue SREBP2 cleavage and HMGCR in glutamine-starved cells to levels similar to those in glutamine-fed cells”. Moreover, in the assay with HMGCR [2] (Hep G2 starved of glutamine 24h, brefeldin A 0.5 µg/ml), the HMGCR result is “rescue SREBP2 cleavage and HMGCR in glutamine-starved cells to levels similar to those in glutamine-fed cells”.

In the case of `O=C(Cc1ccccc1)Nc1nnc(CCSCCc2nnc(NC(=O)Cc3ccccc3)s2)s1` [BPTES, bis-2-(5-phenylacetamido-1,3,4-thiadiazol-2-yl)ethylsulfide], the “HMGCR levels in glutamine-replete conditions” value with HMGCR [3] (U2OS 8h, 30µM BPTES, 2 mM gln, 1 mM αKG) is given as “did not reduce HMGCR levels”.

For the compound `NC(=O)CC[C@@H](N)C(=O)O` [D-glutamine], the “rescue of HMGCR in glutamine-starved cells” value in the assay with HMGCR [3] was “do not rescue HMGCR in glutamine-starved cells”.

As for `[N-]=[N+]=CC(=O)CC[C@H](N)C(=O)O` [DON, 6-diazo-5-oxo-L-norleucine], the “rescue of HMGCR in glutamine-starved cells” value with HMGCR [3] is reported as “do not rescue HMGCR in glutamine-starved cells”.

In the case of `O=C(COc1ccc(Cl)cc1)NC1CCC(NC(=O)COc2ccc(Cl)cc2)CC1` (centres unmarked) [ISRIB], in the assay on ATF4, the “activation of ISR effector ATF4” value is “blocked the activation of the key ISR effector ATF4”. The “loss of HMGCR during glutamine withdrawal” value with HMGCR [3] is listed as “neither treatment prevented the loss of HMGCR during glutamine withdrawal”.

Take `CC(C)C[C@@H](C=O)NC(=O)[C@H](CC(C)C)NC(=O)[C@H](CC(C)C)NC(=O)OCc1ccccc1` [MG-132] (Cbz-Leu-Leu-Leu-aldehyde): the “depletion of HMGCR following glutamine withdrawal” value with HMGCR [3] (U2OS ± glutamine, MG-132 10 µM, 8h) is given as “did not prevent the depletion of HMGCR following glutamine withdrawal”.

Consider `CS(=N)(=O)CCC(N)C(=O)O` (centres unmarked) [MSX, 2-amino-4-(S-methylsulfonimidosyl) butanoic acid], for which the “migration pattern of GLUL” value on GLUL was “led to a shift in the migration pattern of GLUL”. The “HMGCR during glutamine starvation” value with HMGCR [2] (HepG2 starved of gln 24h, then w/out gln ± 500 µM MSX for 8h, immunoblot) is recorded as “further decreased HMGCR during glutamine starvation”. Moreover, the “ammonium chloride-induced increase in HMGCR” value in the assay with HMGCR [2] (HepG2 starved of gln 24h, then w/out gln, 10 mM NH4Cl ± 500 µM MSX for 8h, immunoblot) was “prevented the ammonium chloride-induced increase in HMGCR”.

Turning to `Cl.N` [^15N-ammonia, Ammonium-^15N chloride], the “15N-labelled glutamine of total glutamine” value with U2OS cells [4] is given as “less than 2%”. Besides, in the assay with HepG2 cells, the “15N-labelled glutamine of total glutamine” value is reported as “majority” and the “increase of total glutamine pool” value was “> two-fold”.

Consider `Cl.N` [ammonia, ammonium chloride], for which the “HMGCR following ammonia treatment” value in the assay with HMGCR [2] (HepG2 starved of glutamine 24h, then 24 h w/o gln ± 10 mM 15NH4Cl) was “increased following ammonia treatment”. The “glutamine and HMGCR following ammonia treatment” value in the assay with HMGCR [3] (U2OS starved of glutamine 24h, then 24 h w/o gln ± 10 mM 15NH4Cl) is listed as “neither glutamine nor HMGCR increased following ammonia treatment”.

`NC(=O)CC[C@H](N)C(=O)O` [glutamine]: the “Percentage of cells with Golgi-localized eGFP-SCAP” value with eGFP-SCAP (then gln 2 mM with MSX 500 µM) is above 75%. For the same compound, the EC50 in the assay with HMGCR [3] (Homo sapiens, U2OS w/o gln 24h, refed gln 8h, immunoblot, read-out: half-maximal effects of glutamine on HMGCR induction) is 250 to 500 µM. For the same compound, the “glutamine concentration sufficient to induce HMGCR” value in the assay on HMGCR [3] (U2OS w/o gln 24h, refed gln 8h) amounted to 0.125 mM.

In the case of `CC(=O)C(=O)[O-].[Na+]` [pyruvate, sodium pyruvate], the “rescue of HMGCR in glutamine-starved cells” value in the assay on HMGCR [3] was “do not rescue HMGCR in glutamine-starved cells”.

With `O=C(O)CCC(=O)C(=O)O` [αKG, alpha-ketoglutarate], the “processing of SREBP2 (precursor and mature forms)” value in the assay on SREBP2 [5] was “inhibited the processing of SREBP2 with or without αKG”. In the assay on U2OS cells [6] (25 mM 13C6-glucose), the “m+2 and m+6 citrate pools” value is “sufficient to restore m+2 and m+6 citrate pools to those of gln+ cells”; the “m+4 malate and succinate” value was “blunted the increase in m+4 malate and succinate caused by glutamine starvation”. In the assay with U2OS cells [6], the “levels of TCA-intermediates (total pool size)” value is reported as “partly rescued levels of TCA-intermediates”. For the same compound, the “mTORC1 phosphorylation of S6 kinase (S6K1)” value with p70 phospho-S6K (pS6K) was “restored mTORC1 phosphorylation of its target ribosomal protein S6 kinase (S6K1)”. In addition, in the assay with eGFP-SCAP (then gln- ± αKG 1 mM with MSX 500 µM), the “localization of GFP-SCAP” value is reported as “retained GFP-SCAP in the ER”. Also, the 13C-incorporation into cholesterol result in the assay on U2OS cells [7] is “did not, however, rescue the >5-fold decrease in ^13C-incorporation into cholesterol”. For the same compound, the “loss of HMGCR during glutamine withdrawal” value in the assay with HMGCR [3] is “neither treatment prevented the loss of HMGCR during glutamine withdrawal”. The HMGCR protein level entry with HMGCR [3] (U2OS starved of glutamine 8 hours, αKG 1 mM) was “decreased in cells starved of glutamine for 8 hours, despite αKG supplementation”. The FDFT1 protein level result in the assay with FDFT1 is recorded as “decreased in cells starved of glutamine for 8 hours, despite αKG supplementation”.

tunicamycin: in the assay with ATF6, the ATF6 cleavage result was “similarly drove ATF6 cleavage in glutamine-fed or starved cells”.

Turning to “uridine diphosphate N-acetylglucosamine [UDP-GlcNAc]”, the “rescue of HMGCR levels during glutamine starvation by supplements” value in the assay on HMGCR [3] (U2OS w/o gln 8 hours, NEAA 100 µM, nucleosides, glucosamine 1 mM, ± αKG 1mM) is given as “did not rescue HMGCR levels during glutamine starvation”.
